Where two headings read alike, the source gives them in different places.
Test system: non-gonococcal Neisseria
Assay: MIC determination for non-gonococcal Neisseria, agar dilution
Format: cell-based, Neisseria species
Excerpt: The 2024 WHO N. gonorrhoeae reference strains were used for quality control. Only whole MIC doubling dilutions are reported. Clinical breakpoints or the epidemiological cutoff (ECOFF, to indicate azithromycin resistance) from EUCAST (v14.0, https://www.eucast.org/clinical_breakpoints) were used to classify isolates as antimicrobial susceptible or resistant. […] Two times the standard inoculum defined by CLSI was used to establish consistent growth in untreated control samples for some strains. In vitro time-kill assays were performed according to CLSI guidelines[65] using Columbia Broth (BD Difco) supplemented with 1% IsoVitaleX Enrichment (BD). Viable bacterial counts were generated by plating 10-fold serially diluted samples on GC agar plates containing 1% IsoVitaleX Enrichment (BD).

Measured: MIC

Cc1c(CN(C)C(=O)/C=C/c2cnc3c(c2)N[C@H](C)[C@H](O)C(=O)N3)oc2ccccc12 [Debio 1453]
0.5 µg/mL: Neisseria sicca 1, Consensus, read-out: Minimum inhibitory concentration | Neisseria sicca 1, Replicate 2, read-out: Minimum inhibitory concentration | Neisseria sicca 1, Replicate 3, read-out: Minimum inhibitory concentration | Neisseria sicca 2, Replicate 3, read-out: Minimum inhibitory concentration | Neisseria sicca 4, Replicate 3, read-out: Minimum inhibitory concentration | Neisseria sicca 8, Replicate 1, read-out: Minimum inhibitory concentration | Neisseria subflava 5, Consensus, read-out: Minimum inhibitory concentration | Neisseria subflava 5, Replicate 1, read-out: Minimum inhibitory concentration | Neisseria subflava 5, Replicate 2, read-out: Minimum inhibitory concentration | Neisseria subflava 5, Replicate 3, read-out: Minimum inhibitory concentration
0.008 µg/mL: Neisseria sicca 3, Consensus, read-out: Minimum inhibitory concentration | Neisseria sicca 3, Replicate 1, read-out: Minimum inhibitory concentration | Neisseria sicca 3, Replicate 3, read-out: Minimum inhibitory concentration | Neisseria sicca 5, Replicate 1, read-out: Minimum inhibitory concentration | Neisseria sicca 7, Consensus, read-out: Minimum inhibitory concentration | Neisseria sicca 7, Replicate 1, read-out: Minimum inhibitory concentration | Neisseria sicca 7, Replicate 2, read-out: Minimum inhibitory concentration | Neisseria sicca 7, Replicate 3, read-out: Minimum inhibitory concentration
0.125 µg/mL: read-out: Minimum inhibitory concentration, Neisseria cinerea 4, Consensus | read-out: Minimum inhibitory concentration, Neisseria cinerea 4, Replicate 1 | read-out: Minimum inhibitory concentration, Neisseria cinerea 4, Replicate 2 | read-out: Minimum inhibitory concentration, Neisseria cinerea 4, Replicate 3 | read-out: Minimum inhibitory concentration, Neisseria cinerea 5, Consensus | read-out: Minimum inhibitory concentration, Neisseria cinerea 5, Replicate 1 | read-out: Minimum inhibitory concentration, Neisseria cinerea 5, Replicate 2 | read-out: Minimum inhibitory concentration, Neisseria cinerea 5, Replicate 3 | read-out: Minimum inhibitory concentration, Neisseria cinerea 8, Consensus | read-out: Minimum inhibitory concentration, Neisseria cinerea 8, Replicate 2 | read-out: Minimum inhibitory concentration, Neisseria cinerea 8, Replicate 3 | read-out: Minimum inhibitory concentration, Neisseria elongata 1, Consensus | read-out: Minimum inhibitory concentration, Neisseria elongata 1, Replicate 1 | read-out: Minimum inhibitory concentration, Neisseria elongata 1, Replicate 2 | read-out: Minimum inhibitory concentration, Neisseria elongata 1, Replicate 3 | read-out: Minimum inhibitory concentration, Neisseria flava 1, Consensus | read-out: Minimum inhibitory concentration, Neisseria flava 1, Replicate 1 | read-out: Minimum inhibitory concentration, Neisseria flava 1, Replicate 3 | read-out: Minimum inhibitory concentration, Neisseria flavescens 2, Consensus | read-out: Minimum inhibitory concentration, Neisseria flavescens 2, Replicate 1 | read-out: Minimum inhibitory concentration, Neisseria flavescens 2, Replicate 3 | read-out: Minimum inhibitory concentration, Neisseria flavescens 8, Consensus | read-out: Minimum inhibitory concentration, Neisseria flavescens 8, Replicate 2 | read-out: Minimum inhibitory concentration, Neisseria flavescens 8, Replicate 3 | read-out: Minimum inhibitory concentration, Neisseria flavescens 10, Consensus | read-out: Minimum inhibitory concentration, Neisseria flavescens 10, Replicate 1 | read-out: Minimum inhibitory concentration, Neisseria flavescens 10, Replicate 3 | read-out: Minimum inhibitory concentration, Neisseria flavescens 12, Replicate 3 | read-out: Minimum inhibitory concentration, Neisseria mucosa 2, Consensus | read-out: Minimum inhibitory concentration, Neisseria mucosa 2, Replicate 2 | read-out: Minimum inhibitory concentration, Neisseria mucosa 2, Replicate 3 | read-out: Minimum inhibitory concentration, Neisseria perflava 5, Consensus | read-out: Minimum inhibitory concentration, Neisseria perflava 5, Replicate 1 | read-out: Minimum inhibitory concentration, Neisseria perflava 5, Replicate 2 | read-out: Minimum inhibitory concentration, Neisseria perflava 5, Replicate 3 | read-out: Minimum inhibitory concentration, Neisseria perflava 18, Consensus | read-out: Minimum inhibitory concentration, Neisseria perflava 18, Replicate 1 | read-out: Minimum inhibitory concentration, Neisseria perflava 18, Replicate 3 | read-out: Minimum inhibitory concentration, Neisseria perflava 24, Consensus | read-out: Minimum inhibitory concentration, Neisseria perflava 24, Replicate 1 | read-out: Minimum inhibitory concentration, Neisseria perflava 24, Replicate 2 | read-out: Minimum inhibitory concentration, Neisseria perflava 24, Replicate 3 | read-out: Minimum inhibitory concentration, Neisseria polysaccharea 1, Consensus | read-out: Minimum inhibitory concentration, Neisseria polysaccharea 1, Replicate 1 | read-out: Minimum inhibitory concentration, Neisseria polysaccharea 1, Replicate 2 | read-out: Minimum inhibitory concentration, Neisseria polysaccharea 1, Replicate 3 | read-out: Minimum inhibitory concentration, Neisseria sicca 4, Consensus | read-out: Minimum inhibitory concentration, Neisseria sicca 4, Replicate 1 | read-out: Minimum inhibitory concentration, Neisseria sicca 4, Replicate 2 | read-out: Minimum inhibitory concentration, Neisseria subflava 3, Replicate 3
0.064 µg/mL: Neisseria polysaccharea 2, Consensus, read-out: Minimum inhibitory concentration | Neisseria polysaccharea 2, Replicate 1, read-out: Minimum inhibitory concentration | Neisseria polysaccharea 2, Replicate 2, read-out: Minimum inhibitory concentration | Neisseria polysaccharea 2, Replicate 3, read-out: Minimum inhibitory concentration | Neisseria subflava 4, Consensus, read-out: Minimum inhibitory concentration | Neisseria subflava 4, Replicate 1, read-out: Minimum inhibitory concentration | Neisseria subflava 4, Replicate 2, read-out: Minimum inhibitory concentration | Neisseria subflava 4, Replicate 3, read-out: Minimum inhibitory concentration
0.016 µg/mL: Neisseria sicca 3, Replicate 2, read-out: Minimum inhibitory concentration | Neisseria sicca 5, Consensus, read-out: Minimum inhibitory concentration | Neisseria sicca 5, Replicate 2, read-out: Minimum inhibitory concentration | Neisseria sicca 5, Replicate 3, read-out: Minimum inhibitory concentration
2 µg/mL: Neisseria subflava 1, Consensus, read-out: Minimum inhibitory concentration | Neisseria subflava 1, Replicate 1, read-out: Minimum inhibitory concentration | Neisseria subflava 1, Replicate 2, read-out: Minimum inhibitory concentration | Neisseria subflava 1, Replicate 3, read-out: Minimum inhibitory concentration
1 µg/mL: Neisseria perflava 25, Replicate 3, read-out: Minimum inhibitory concentration | Neisseria sicca 6, Consensus, read-out: Minimum inhibitory concentration | Neisseria sicca 6, Replicate 1, read-out: Minimum inhibitory concentration | Neisseria sicca 6, Replicate 2, read-out: Minimum inhibitory concentration | Neisseria sicca 6, Replicate 3, read-out: Minimum inhibitory concentration | Neisseria sicca 8, Consensus, read-out: Minimum inhibitory concentration | Neisseria sicca 8, Replicate 2, read-out: Minimum inhibitory concentration | Neisseria sicca 8, Replicate 3, read-out: Minimum inhibitory concentration
0.25 µg/mL: Neisseria sicca 1, Replicate 1, read-out: Minimum inhibitory concentration | Neisseria sicca 2, Consensus, read-out: Minimum inhibitory concentration | Neisseria sicca 2, Replicate 1, read-out: Minimum inhibitory concentration | Neisseria sicca 2, Replicate 2, read-out: Minimum inhibitory concentration | Neisseria sicca 9, Consensus, read-out: Minimum inhibitory concentration | Neisseria sicca 9, Replicate 1, read-out: Minimum inhibitory concentration | Neisseria sicca 9, Replicate 2, read-out: Minimum inhibitory concentration | Neisseria sicca 9, Replicate 3, read-out: Minimum inhibitory concentration | Neisseria subflava 2, Consensus, read-out: Minimum inhibitory concentration | Neisseria subflava 2, Replicate 1, read-out: Minimum inhibitory concentration | Neisseria subflava 2, Replicate 2, read-out: Minimum inhibitory concentration | Neisseria subflava 2, Replicate 3, read-out: Minimum inhibitory concentration | Neisseria subflava 3, Consensus, read-out: Minimum inhibitory concentration | Neisseria subflava 3, Replicate 1, read-out: Minimum inhibitory concentration | Neisseria subflava 3, Replicate 2, read-out: Minimum inhibitory concentration | po, Neisseria oralis 1, Consensus, read-out: Minimum inhibitory concentration | po, Neisseria oralis 1, Replicate 1, read-out: Minimum inhibitory concentration | po, Neisseria oralis 1, Replicate 2, read-out: Minimum inhibitory concentration | po, Neisseria oralis 1, Replicate 3, read-out: Minimum inhibitory concentration
